From patent US8394828B2 (Janssen Pharmaceutica, NV, priority 2003, dated 2013)

How the values were obtained:
[1] = test system: carrageenan paw-induced thermal hyperalgesia; experiment: Carrageenan Paw-induced Thermal Hyperalgesia; assay type: in vivo, mice or rats; conditions: 30 mg/kg po; read-out: % Recovery
[2] = test system: Dextran Sulfate Sodium Induced Colitis; experiment: Mouse Colitis Model (Dextran Sulfate Sodium Induced Colitis); assay type: in vivo, mice; conditions: 5% DSS in drinking water, twice daily, orally, 0.05-30 mg/kg
Source text: These are similar to what occurs in human colitis.
Balb/c female mice are provided with a solution of tap water containing 5% DSS (ICN chemicals) ad libitum over a 7-day period. […] This material may be administered orally or intraperitoneally, once or twice daily. At the end of this period, the animals are euthanized and their colons are collected for further analysis. Among the parameters analyzed are the length of the colon starting from 1 cm above the anus to the top of the cecum, the weight of the colon, the consistency of any stools found within the colon, and the gross macroscopic appearance of the colon. The distal colon between the 1st and the 4th centimeter are dissected into two halves. One half is placed in 10% neutral buffered formalin for later histological analysis if desired. The other half is cleaned in a bath of physiological buffer, patted dry, weighed and then placed in a solution of 0.5% hexadecyltrimethylammonium bromide (HTAB; Sigma) dissolved in 50 mM phosphate buffer, adjusted to pH 5.4. The tissue sample thus treated is then frozen at −80° C.
For the following parameters, colon length, colon weight, stool consistency and appearance and macroscopic damage a scoring system is used to describe the changes. The 4 scores for each animal are added to provide a Total Score. Thus,
Stool Score: • 0=normal (well-formed fecal pellets); • 1=loosely-shaped moist pellets; • 2=amorphous, moist, sticky pellets; • 3=bloody diarrhea. Presence of blood in stool: add 1 to scores <3
Colon Damage Score: • 0=no inflammation • 1=reddening mild inflammation; • 2=moderate inflammation or more widely distributed; • 3=severe inflammation and/or extensively distributed
Colon Weight Score: • 0=<5% weight loss; • 1=5-14% weight loss; • 2=15-24% weight loss; • 3=25-35% weight loss; 4=>35% weight loss.
Colon Length Score: • 0=<5% shortening; • 1=5-14% shortening; • 2=15-24% shortening; • 3=25-35% shortening; • 4=>35% shortening.
Colon weight changes and colon length changes are also directly measured and the net changes compared to DSS and untreated controls are used to calculate a % inhibition of colon weight loss or colon shrinkage induced by DSS treatment.
The tissue sample previously frozen at −80° C. in 0.5% solution of HTAB is thawed, homogenized twice for 15 seconds using a Brinkman Polytron homogenizer fitted with a TS10 generator. The crude homogenate is next sonicated at 60 watts for two 5-second bursts and then centrifuged for 20 minutes at 15000×g. The supernatant of this homogenate is collected, aliquoted and frozen at −70° C. for future analysis for myeloperoxidase analysis (MPO). MPO is an intracellular enzyme found in neutrophils and can be considered a surrogate marker for neutrophil infiltration into tissues, including those afflicted with colitis (Diaz-Granados, et al., 2000).
Statistical analyses were performed by ANOVA using Multiple Comparisons Test and Tukey's test.

[3] = test system: rings of bronchial tissue obtained from male guinea pigs; experiment: Guinea Pig Bronchial Ring Constriction; conditions: tissues exposed to compound for 30 min; capsaicin 10 nM-10 μM; FIG. 7
Procedure: Two mm rings of bronchial tissue obtained from male guinea pigs were suspended in normal Krebs solution between two wire hooks under an initial loading tension of 1 gram. The saline was maintained in a 5% CO2 and 95% O2 atmosphere at 37° C. in the presence of indomethacin (5 μM). A sub-maximal dose of 5-methylfurmethide (5 Mef, 1 μM) was added to each tissue to determine responsiveness using an isometric force transducer. After washout, tissues were exposed to compounds or vehicle for 30 min and treated with thiorphan (10 μM, 5% Na2CO3). A concentration-response curve was then constructed using capsaicin (10 nM-10 μM) increasing in 0.5 log unit increments. The dose response curve was calculated as % max of the 5-Mef response and estimated pA2 were determined.

[4] = test system: mice; experiment: Hot-plate test, reference compounds; assay type: in vivo; conditions: i.p., pre-treat time 30 min
Source text: The hot-plate test originally described by Eddy and Leimbach (J. Pharmacol. Exp. Ther. 107:385-393, 1953) with minor modifications (e.g., O'Callaghan and Holtzman, J. Pharmacol. Exp. Ther. 192: 497-505, 1975) is used to ascertain the analgesic potential of compounds.
Generally, male, Swiss-derived albino mice (CRS-CD1®; Charles River Laboratories), weighing 18-24 g at the time of testing or male Sprague Dawley rats (CD1, Charles River Laboratories) 100-300 g are used. The animals are weighed, placed in a plastic box with wood chips (typically 10 mice or 4-6 rats per box) and allowed to acclimate before testing. […]
An animal is placed on the heated surface and the time interval between placement and a shaking, licking or tucking of the hindpaw is recorded as the control reaction time (RTC). […] A percent maximum possible effect (% MPE) can also be calculated from the following formula: % MPE=100×(RTdc−RTc)/(CO−RTc), where RTdc and RTc are drug-treated and control reaction times, respectively, and CO is cut-off time.
As a screen, the largest possible nontoxic dose of test drug is administered. If activity is detected, and if appropriate, generally 3-5 doses (usually 10 mice or 6-8 rats per dose) are used to construct a dose response curve or time course. […] The ED50 value is determined at the time of peak effect.

Compound: CN(c1ccc(C(=O)Nc2cnc3ccccc3c2)cc1)C1CCCCC1 [Example 102, 4-(Cyclohexyl-methyl-amino)-N-quinolin-3-yl-benzamide]
- inhibition in vivo at 30 mg/kg [1]: 55%
- inhibition of colon weight loss ([2]; FIG. 1): significant (p<0.05) inhibition
- inhibition of colon shrinkage ([2]; FIG. 2): significant (p<0.05) inhibition
- Colon Damage Score ([2]; FIG. 3): diminished (p>0.05), but not statistically significantly
- Stool Score ([2]; FIG. 4): decreased (p>0.05), but not statistically significantly
- inhibition of Total Score ([2]; FIG. 5): significant (p<0.05) inhibition
- Myleoperoxidase (MPO) inhibition ([2]; colon tissue, FIG. 6): inhibition (p>0.05)

Compound: O=C(Nc1cnc2ccccc2c1)c1ccc(N2CC3CCCC(C3)C2)cc1 [Example 178, 4-(3-Aza-bicyclo[3.3.1]non-3-yl)-N-quinolin-3-yl-benzamide]
- shift of the capsaicin dose-response curve [3]: shifted the capsaicin dose-response curve to the right

Compound: Cc1cc(CC(=O)O)n(C)c1C(=O)c1ccc(Cl)cc1 [Zomepirac]
- ED50 (95% C.I.) [4]: inactive
